Data reported in US5990094A, “Inhibitors of sorotonin N-acetyltransferase” (The Rockefeller University, priority 1998, dated 1999).

Legend:
AANAT = conditions: 2-fluorohistidine replaces histidine; cited from earlier work
GST-AANAT = biological target: T1, GST-AANAT (Ovis aries, UniProt Q29495); test: Effect of DTNB on GST-AANAT activity; format: biochemical, sheep
T1 construct: The entire open reading frame of the DNA encoding sheep AANAT in the plasmid vector pET15b; made in house; host or cells: Escherichia coli BL21(DE3)pLysS
T1 sequence (Q29495 other isoform, or with tags, fused parts or gaps): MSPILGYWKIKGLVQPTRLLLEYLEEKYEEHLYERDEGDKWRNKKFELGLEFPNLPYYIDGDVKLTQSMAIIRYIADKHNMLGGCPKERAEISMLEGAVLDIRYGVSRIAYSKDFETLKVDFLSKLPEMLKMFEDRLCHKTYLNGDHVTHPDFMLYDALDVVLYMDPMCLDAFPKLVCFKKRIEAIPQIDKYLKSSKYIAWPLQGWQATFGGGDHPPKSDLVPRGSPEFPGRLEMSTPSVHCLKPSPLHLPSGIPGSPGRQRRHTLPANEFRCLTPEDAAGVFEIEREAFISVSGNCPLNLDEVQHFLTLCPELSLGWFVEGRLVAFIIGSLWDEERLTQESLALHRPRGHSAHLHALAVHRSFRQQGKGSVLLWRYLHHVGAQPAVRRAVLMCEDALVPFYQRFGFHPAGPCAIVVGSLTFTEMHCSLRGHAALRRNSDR
Experimental: The potential difficulty with this approach was that reducing agents such as dithiothreitol and β-mercaptoethanol react with DTNB (Ellman's reagent). Indeed, GST-AANAT is somewhat unstable in the absence of reducing agents, losing greater than 50% activity within 2 h at 4° C. (data not shown). However, the enzyme was stable within the short incubation periods used in these studies (less than 3 min). It was shown unequivocally that CoASH generation was coupled tightly to N-acetyltryptamine formation, and the activity was linear with time and enzyme concentration.

[1] = people; cited from earlier work
[2] = system: intracellular receptors for melatonin; conditions: intracellular orphan receptors vs G-protein family; cited from earlier work

N[C@@H](Cc1c[nH]c(F)n1)C(=O)O [2-fluorohistidine]
induction of AANAT in the pineal (AANAT): induction of AANAT in the pineal is blocked

O=C(O)c1cc(SSc2ccc([N+](=O)[O-])c(C(=O)O)c2)ccc1[N+](=O)[O-] [DTNB, 5,5'-dithiobis-(2-nitrobenzoic acid]
effect on GST-AANAT activity (GST-AANAT): inhibited GST-AANAT activity

COc1ccc2[nH]cc(CCNC(C)=O)c2c1 [Melatonin, 5-methoxy-N-acetyltryptamine]
oral bioavailability variability [1]: 25 fold range | Kd of binding and activation, higher compared to G-protein family receptors [2]: 10-100 fold
